Measurements published in patent US7625945B2, “Andrographolide and analogues as inhibitors of TNFα and IL-1β expression” (Hutchison MediPharma Enterprises Ltd., priority 2004, dated 2009).

System: DNBS-induced colitis
Test: In vivo assay: DNBS-induced distal colitis in rats
Design: species or system Male Wistar rats
Details: DNBS-treated rats, 10 mg/kg i.p.
Description: Male Wistar rats (170-190 g, provided by Chinese academy of science animal center, Shanghai) were housed (7˜8 rats per cage) in a controlled environment and fed with standard rodent chow and water. Distal colitis was induced to the rats according to the procedure described in Hogaboam C. M., European Journal of Pharmacology, 1996, 309: 261-269. Briefly, the rats were anaesthetized with 1% pentobarbital sodium. 2,4-Dinitrobenzene sulfonic acid (DNBS) in 0.25 ml of 30% ethanol (v/v) was introduced into the colon (8 cm proximal to the anus) via a PE 50 cannula. In the control group (blank-control), 30% ethanol (v/v), in stead of DNBS in ethanol, was introduced. Andrographolide (10 mg/kg, i.p.) was administered to a group of DNBS-treated rats 24 hours and 2 hours prior to the colitis induction and once daily thereafter for 5 days. The rats were weighed daily. All rats were sacrificed 6 days after the colitis induction, and colon, spleen, and thymus were removed and weighed. The colon weight/body weight ratio, spleen weight/body weight ratio, and thymus weight/body weight ratio were calculated. Samples of colon tissues located precisely 2 cm above the anal canal were obtained, fixed in 10% neutral-buffered formalin, embedded in paraffin, sectioned, and stained with hematoxylin/eosin. The samples were examined under microscope to determine severity of the lesions.

C=C1CC[C@@H]2[C@](C)(CO)[C@H](O)CC[C@@]2(C)[C@@H]1C/C=C1/C(=O)OC[C@H]1O [andrographolide]
overall effect on DNBS-induced colitis: effectively alleviated or even cured
microscopic examination of colon: severity of inflammation (colon sections hematoxylin/eosin, 6 days after induction): much less severe inflammation
colon weight/body weight ratio (treatment for 6 days): decreased
wasting syndrome (weight loss, diarrhea) (treatment for 6 days): alleviated wasting syndrome
